The target of test [1] is Transcription factor p65 (Homo sapiens) (UniProt Q04206). Description: Inhibition of NF-kappaB-65 (unknown origin)-mediated transactivation in TNFalpha-stimulated HEK293 cells assessed inhibition of I-kappaB phosphorylation and degradation after 24 hrs. Type of test: cell-based.
Test [2] relates to Mus musculus. The experiment in a line: Antiphotoaging activity in DBA-2 mouse assessed as reduction of UVB-induced PCNA-positive cell in ear tissue at 92.4 to 462.2 mg/kg, po as powder qd for 12 days. Type of test: functional, organism-based.
Test [3] has as its system Mus musculus. The experiment in a line: Antiphotoaging activity in DBA-2 mouse assessed as reduction of UVB-induced melanocyte proliferation in ear tissue at 92.4 to 462.2 mg/kg, po as powder qd for 12 days relative to untreated control. The note with it: dose mg/kg 92.4-462.2. Type of test: functional.
The subject of the next test is HEK293. Description: Inhibition of NF-kappaB (unknown origin) expressed in TNFalpha-stimulated HEK293 cells expressing pGL3-Luc assessed inhibition of transactivation activity after 24 hrs by luciferase assay. As to conditions: Homo sapiens. Type of test: cell-based.
Test [4] deals with Transcription factor p65 (Homo sapiens) (UniProt Q04206). Description: Inhibition of NF-kappaB-65 (unknown origin) expressed in TNFalpha-stimulated HEK293 cells assessed inhibition of nuclear translocation at 8 uM after 3 hrs. It is filed as cell-based.
Test [5] shares this target. The experiment in a line: Inhibition of NF-kappaB p65 expressed in human keratinocytes co-cultured with human epidermal melanocytes assessed as inhibition of melanocyte proliferation at 4 uM by WST-1 assay. It is filed as cell-based. (In general: Tetrazolium assays rely on reduction of a dye to a coloured formazan, in cell work by metabolically active cells.)
For test [6] the target is unchanged. Description: Inhibition of NF-kappaB-65 (unknown origin) expressed in human dermal fibroblasts assessed as inhibition of MMP1 production at 4 uM by EIA.
The subject of test [7] is Mus musculus. The experiment in a line: Antiphotoaging activity in DBA-2 mouse assessed as reduction of UVB-induced epidermal hyperproliferation in ear tissue administered as po as powder qd for 12 days relative to untreated control. It is filed as functional, organism-based.
The subject of test [8] is Mus musculus. Description: Antiphotoaging activity in DBA-2 mouse assessed as reduction of UVB-induced epidermal hyperproliferation in ear tissue at 462.2 mg/kg, po as powder qd for 12 days relative to untreated control. It is filed as functional.
Test [9] deals with Transcription factor p65 (Homo sapiens) (UniProt Q04206). The experiment in a line: Inhibition of NF-kappaB-65 (unknown origin) expressed in human keratinocytes assessed as inhibition of bFGF production at 4 uM by EIA. It is filed as cell-based.
For test [10], the system named is Mus musculus. The experiment in a line: Antiphotoaging activity in DBA-2 mouse assessed as reduction of UVB-induced epidermal hyperproliferation in ear tissue at 92.4 mg/kg, po as powder qd for 12 days relative to untreated control. Also on record: dose 92.4 mg/kg. Type of test: functional, organism-based.

Active and inactive are the calls of the source. No cut-off for these calls is given here.

Sequence of Transcription factor p65 (Homo sapiens) (Q04206 whole entry): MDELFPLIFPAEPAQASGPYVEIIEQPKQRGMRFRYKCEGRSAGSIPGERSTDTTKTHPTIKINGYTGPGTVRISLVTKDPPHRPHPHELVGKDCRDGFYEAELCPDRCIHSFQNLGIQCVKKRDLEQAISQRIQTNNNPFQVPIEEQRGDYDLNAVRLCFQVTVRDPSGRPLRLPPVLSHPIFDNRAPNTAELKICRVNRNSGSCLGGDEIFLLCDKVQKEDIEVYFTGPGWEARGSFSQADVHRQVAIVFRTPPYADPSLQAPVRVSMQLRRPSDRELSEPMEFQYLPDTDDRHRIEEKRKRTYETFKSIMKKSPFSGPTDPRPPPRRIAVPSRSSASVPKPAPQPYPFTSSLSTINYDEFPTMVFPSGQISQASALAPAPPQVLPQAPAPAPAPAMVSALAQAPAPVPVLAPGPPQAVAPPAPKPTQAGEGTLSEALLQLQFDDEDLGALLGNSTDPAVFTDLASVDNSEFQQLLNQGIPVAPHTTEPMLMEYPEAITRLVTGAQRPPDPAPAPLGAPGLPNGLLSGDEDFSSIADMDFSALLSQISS

As for `C=C(CO)C(=O)O[C@H]1CC(=C)[C@@H]2C[C@H](O)C(=C)[C@@H]2[C@H]2OC(=O)C(=C)[C@@H]21` [CYNAROPICRIN], the inhibition result (in [1]; in the test with HEK293) was “Dose-dependent effect” throughout. Further, in the test with Mus musculus [2], the outcome was inactive. Further, the results for the “fold change (FC)” value with Mus musculus [3] and in the test on Mus musculus [8] were 4.3 and 1.7, respectively. Besides, the inhibition entry in [4], in test [5], in test [6] and in [9] was “Active” throughout. The Activity result in the test with Mus musculus [7] was “Dose-dependent effect”. In addition, the result in the test with Mus musculus [10] was Active.

Source of the values: ChEMBL document CHEMBL2311447, “Cynaropicrin from Cynara scolymus L. suppresses photoaging of skin by inhibiting the transcription activity of nuclear factor-kappa B” (2013).
